We go through eight molecules from ChEMBL document CHEMBL1201862, “PubChem BioAssay data set” (2004).

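Tested at 5 concentrations; 48 h exposure; 96-well plates; endpoints linearly interpolated, else capped at highest concentration. The concentration for 50% growth inhibition is given as GI50.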 Calls of active or inactive are those of the source. No stated cut-off is given here; in the data, active = GI50 up to about 1.1 µM and inactive = higher.

Test systems include RPMI-8226; PC-3; CCRF-CEM; 786-0; A549; SF-539; NCI/ADR-RES; DU-145; NCI-H522; HCT-15; SNB-75; OVCAR-5; UO-31; MOLT-4; HT-29; MDA-MB-435; UACC-257; SF-295; OVCAR-8; A498.
Holding throughout (experiment): inhibition of tumour cell growth, NCI panel, 48 h

As for `N/C(CCSCCSCC/C(N)=N\O)=N\O`, the GI50 with RPMI-8226, in the assay with PC-3, with CCRF-CEM, with 786-0, with A549 and in the assay with SF-539 was > 100 µM (inactive) in each case. Moreover, the GI50 was > 100 µM (inactive) with NCI/ADR-RES; > 100 µM (inactive) in the assay on DU-145; > 100 µM (inactive) with NCI-H522; above 100 µM in the assay on HCT-15; > 100 µM (inactive) in the assay on SNB-75; > 100 µM (inactive) in the assay on OVCAR-5. The GI50 in the assay with UO-31, with MOLT-4, in the assay on HT-29 and in the assay with MDA-MB-435 was > 100 µM (inactive) in each case.
Take `COc1ccc2c(=O)c3ccoc3[nH]c2c1`: the GI50 in the assay on UACC-257, with RPMI-8226, in the assay with PC-3, in the assay on CCRF-CEM, in the assay with 786-0 and in the assay with SF-295 was > 100 µM (inactive) in each case. In addition, the GI50 in the assay with SF-539 was > 100 µM (inactive); in the assay with OVCAR-8, > 100 µM (inactive); in the assay on NCI/ADR-RES, > 100 µM (inactive); in the assay with DU-145 it was > 100 µM (inactive); in the assay with HCT-15, above 100 µM; in the assay on SNB-75 it was > 100 µM (inactive). Besides, the GI50 in the assay on UO-31, with A498, in the assay on MOLT-4, with HT-29 and with MDA-MB-435 was > 100 µM (inactive) in each case.
Consider `CS(=O)(=O)C[S+]([O-])C[S+]([O-])C[S+]([O-])CC(NC(=O)CCC(N)C(=O)O)C(=O)O` (stereo unspecified), for which the GI50 with UACC-257, in the assay on RPMI-8226, in the assay on PC-3, with CCRF-CEM, in the assay on 786-0 and in the assay with SF-295 was > 100 µM (inactive) in each case. Besides, the GI50 in the assay on A549, in the assay on SF-539, in the assay on OVCAR-8, in the assay with NCI/ADR-RES, in the assay with DU-145 and in the assay on NCI-H522 was > 100 µM (inactive) in each case. Moreover, the GI50 in the assay with HCT-15 was above 100 µM; in the assay with SNB-75, > 100 µM (inactive); in the assay on OVCAR-5 it was > 100 µM (inactive); in the assay on UO-31, > 100 µM (inactive); with MOLT-4, > 100 µM (inactive); in the assay on HT-29 it was > 100 µM (inactive). Moreover, the GI50 in the assay with MDA-MB-435 was > 100 µM (inactive).
As to `O=C1c2ccccc2-c2c1c(-c1ccc(F)cc1)nc1ccc3ccccc3c21`, the GI50 in the assay with UACC-257, with RPMI-8226, in the assay on PC-3, in the assay with CCRF-CEM, with 786-0 and in the assay on SF-295 was > 100 µM (inactive) each time. In addition, the GI50 with A549 was > 100 µM (inactive); with SF-539 it was > 100 µM (inactive); in the assay with OVCAR-8, > 100 µM (inactive); in the assay with NCI/ADR-RES, > 100 µM (inactive); in the assay with DU-145, > 100 µM (inactive); with HCT-15, above 100 µM. Besides, the GI50 with SNB-75, with OVCAR-5, in the assay on UO-31, with A498, in the assay with MOLT-4 and with HT-29 was > 100 µM (inactive) in each case. Besides, in the assay on MDA-MB-435, the GI50 is > 100 µM (inactive).
Consider `CCn1c(=O)c2nc(SC)sc2n(-c2ccc(C)cc2)c1=O`, for which the GI50 with UACC-257 is > 100 µM (inactive); with RPMI-8226, > 100 µM (inactive); in the assay with PC-3, > 100 µM (inactive); in the assay on CCRF-CEM, > 100 µM (inactive); in the assay with 786-0 it was 0.401 µM (active); with SF-295, > 100 µM (inactive). The GI50 with A549, in the assay with SF-539, with OVCAR-8, in the assay with NCI/ADR-RES, in the assay on DU-145 and in the assay on NCI-H522 was > 100 µM (inactive) in each case. The GI50 in the assay on HCT-15 is above 100 µM; in the assay on SNB-75, 29.4 µM (inactive); with OVCAR-5, > 100 µM (inactive); in the assay with UO-31 it was 32.1 µM (inactive); with MOLT-4, > 100 µM (inactive); in the assay on HT-29, > 100 µM (inactive). The GI50 in the assay on MDA-MB-435 is 2.17 µM (inactive).
For the molecule `CC(=S)NC1C(Oc2ccc3c(C)cc(=O)oc3c2)OC(CO)C(O)C1O` (stereo unspecified), the GI50 was > 100 µM (inactive) in the assay on UACC-257; > 100 µM (inactive) in the assay with RPMI-8226; > 100 µM (inactive) in the assay with PC-3; > 100 µM (inactive) in the assay on CCRF-CEM; > 10 µM (inactive) in the assay with 786-0; > 100 µM (inactive) in the assay with SF-295. The GI50 in the assay on A549 was > 100 µM (inactive); with SF-539, > 100 µM (inactive); in the assay on OVCAR-8, > 100 µM (inactive); in the assay with NCI/ADR-RES it was > 100 µM (inactive); in the assay with DU-145 it was > 100 µM (inactive); in the assay with HCT-15, above 100 µM. For the same molecule, the GI50 with SNB-75, in the assay on OVCAR-5, in the assay on UO-31, in the assay on A498, in the assay on MOLT-4 and in the assay with HT-29 was > 100 µM (inactive) throughout. The GI50 in the assay on MDA-MB-435 was > 100 µM (inactive).
For `CC1N[B@@-](C)(c2ccc(C(F)(F)F)cc2)OC1c1ccccc1` (stereo partly specified), the GI50 in the assay on UACC-257 is > 100 µM (inactive); with RPMI-8226 it was 34.7 µM (inactive); in the assay on PC-3 it was 53.3 µM (inactive); with CCRF-CEM, 42.6 µM (inactive); in the assay on 786-0 it was > 100 µM (inactive); with SF-295 it was > 100 µM (inactive). Also, the GI50 in the assay on A549 was > 100 µM (inactive); with OVCAR-8 it was > 100 µM (inactive); with NCI/ADR-RES, > 100 µM (inactive); with DU-145, > 100 µM (inactive); with HCT-15, 49.1 µM; with SNB-75, 32.6 µM (inactive). Also, the GI50 was > 100 µM (inactive) in the assay with OVCAR-5; 34.7 µM (inactive) in the assay with UO-31; 58.9 µM (inactive) with A498; 29.9 µM (inactive) in the assay with MOLT-4; 72.1 µM (inactive) in the assay with HT-29; > 100 µM (inactive) in the assay on MDA-MB-435.
On to `O=C1/C(=C/c2ccc(Cl)cc2)CCCc2ccccc21`, for which the GI50 with UACC-257 is 28.8 µM (inactive); in the assay with RPMI-8226 it was 12.8 µM (inactive); in the assay with PC-3, 19.6 µM (inactive); in the assay with CCRF-CEM, 12.5 µM (inactive); in the assay on 786-0 it was 17.3 µM (inactive); with SF-295, 16.9 µM (inactive). Besides, the GI50 in the assay on A549 is 21.3 µM (inactive); in the assay with SF-539, 17.9 µM (inactive); with OVCAR-8 it was 17.2 µM (inactive); in the assay with NCI/ADR-RES, 15.1 µM (inactive); with DU-145 it was 23.1 µM (inactive); in the assay with NCI-H522, 11.7 µM (inactive). For the same molecule, the GI50 with HCT-15 is 14 µM; in the assay with SNB-75 it was 30.3 µM (inactive); with OVCAR-5 it was 16.9 µM (inactive); in the assay on UO-31 it was 18.3 µM (inactive); with MOLT-4, 14.8 µM (inactive); in the assay with HT-29, 4.67 µM (inactive). In addition, the GI50 in the assay on MDA-MB-435 was 17.1 µM (inactive).
